Test results as given in ChEMBL document CHEMBL1131097, “2-Deoxy derivative is a partial agonist of the intracellular messenger inositol 3,4,5,6-tetrakisphosphate in the epithelial cell line T84” (J Med Chem, 1998).

Columns and labels:
T84 [1] = assay: Inhibition of calcium-mediated chloride secretion in the intestinal epithelial cell line T84 by measuring short circuit current at 200 uM concentration; Ineffective; type: functional, cell-based; conditions: Homo sapiens
T84 [2] = assay: Inhibition of calcium-mediated chloride secretion in the intestinal epithelial cell line T84 by measuring short circuit current at 400 uM concentration; Maximum; type: functional, cell-based; conditions: Homo sapiens

For `CCCCO[C@@H]1C[C@H](OP(=O)(OCOC(C)=O)OCOC(C)=O)[C@@H](OP(=O)(OCOC(C)=O)OCOC(C)=O)[C@H](OP(=O)(OCOC(C)=O)OCOC(C)=O)[C@H]1OP(=O)(OCOC(C)=O)OCOC(C)=O` (racemic), which inhibition (T84 [1]) is on record?
The inhibition was “Ineffective”.

What about the inhibition (T84 [2]) of the same molecule?
Its inhibition is “Ineffective”.
